According to ChEMBL document CHEMBL1201862, “PubChem BioAssay data set” (2004):
Where “and” joins values, the source holds several entries; their conditions need not be identical. Equal entries are not always repeated. Calls of active or inactive are those of the source.

Columns and labels:
[1] = molecular target: T1, Sentrin-specific protease 8 (Homo sapiens, UniProt Q96LD8); experiment: SENP8 protease inhibitors, SAR follow-up, biochemical, luminescence, set 2 (AID 588601); format: functional
T1 sequence (Q96LD8 whole entry): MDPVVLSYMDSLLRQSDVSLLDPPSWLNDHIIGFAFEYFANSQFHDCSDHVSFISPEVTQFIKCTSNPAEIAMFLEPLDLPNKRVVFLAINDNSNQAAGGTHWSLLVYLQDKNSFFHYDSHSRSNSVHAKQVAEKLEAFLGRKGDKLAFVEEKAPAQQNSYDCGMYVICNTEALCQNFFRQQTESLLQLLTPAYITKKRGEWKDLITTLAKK

[2] = molecular target: T2, Sentrin-specific protease 7 (Homo sapiens, UniProt Q9BQF6); experiment: SENP7 protease inhibitors, SAR follow-up, biochemical, luminescence, set 2 (AID 588600); format: functional
T2 sequence (Q9BQF6 whole entry): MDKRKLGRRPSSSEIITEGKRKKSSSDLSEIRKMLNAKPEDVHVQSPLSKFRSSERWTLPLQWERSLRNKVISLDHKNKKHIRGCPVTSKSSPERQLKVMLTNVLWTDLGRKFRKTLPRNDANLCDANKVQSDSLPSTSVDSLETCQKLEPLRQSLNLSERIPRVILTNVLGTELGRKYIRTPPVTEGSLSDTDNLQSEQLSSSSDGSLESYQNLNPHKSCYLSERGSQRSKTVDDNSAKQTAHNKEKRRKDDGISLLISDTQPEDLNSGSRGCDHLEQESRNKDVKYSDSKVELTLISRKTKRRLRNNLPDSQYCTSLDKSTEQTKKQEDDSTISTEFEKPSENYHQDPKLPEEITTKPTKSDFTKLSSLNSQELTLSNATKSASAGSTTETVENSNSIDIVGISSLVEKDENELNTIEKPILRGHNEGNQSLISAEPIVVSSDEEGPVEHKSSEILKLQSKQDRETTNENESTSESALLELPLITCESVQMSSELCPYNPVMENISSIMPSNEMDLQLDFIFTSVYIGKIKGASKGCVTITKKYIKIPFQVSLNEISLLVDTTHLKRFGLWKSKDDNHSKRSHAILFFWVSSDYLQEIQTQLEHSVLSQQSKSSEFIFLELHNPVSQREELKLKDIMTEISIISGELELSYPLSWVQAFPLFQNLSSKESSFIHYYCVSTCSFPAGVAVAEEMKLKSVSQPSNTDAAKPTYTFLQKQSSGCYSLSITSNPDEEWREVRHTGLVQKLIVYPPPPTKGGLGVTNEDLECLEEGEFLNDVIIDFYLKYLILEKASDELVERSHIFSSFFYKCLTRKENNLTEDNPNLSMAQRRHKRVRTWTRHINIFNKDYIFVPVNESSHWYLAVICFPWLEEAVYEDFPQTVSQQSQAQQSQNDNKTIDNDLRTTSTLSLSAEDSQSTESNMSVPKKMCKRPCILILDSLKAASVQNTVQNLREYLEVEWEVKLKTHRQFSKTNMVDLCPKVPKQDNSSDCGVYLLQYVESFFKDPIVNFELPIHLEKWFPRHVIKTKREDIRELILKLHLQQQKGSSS

[3] = molecular target: T3, Sentrin-specific protease 6 (Homo sapiens, UniProt Q9GZR1); experiment: SENP6 protease inhibitors, SAR follow-up, biochemical, luminescence, set 2 (AID 588598); format: functional
T3 sequence (Q9GZR1 whole entry): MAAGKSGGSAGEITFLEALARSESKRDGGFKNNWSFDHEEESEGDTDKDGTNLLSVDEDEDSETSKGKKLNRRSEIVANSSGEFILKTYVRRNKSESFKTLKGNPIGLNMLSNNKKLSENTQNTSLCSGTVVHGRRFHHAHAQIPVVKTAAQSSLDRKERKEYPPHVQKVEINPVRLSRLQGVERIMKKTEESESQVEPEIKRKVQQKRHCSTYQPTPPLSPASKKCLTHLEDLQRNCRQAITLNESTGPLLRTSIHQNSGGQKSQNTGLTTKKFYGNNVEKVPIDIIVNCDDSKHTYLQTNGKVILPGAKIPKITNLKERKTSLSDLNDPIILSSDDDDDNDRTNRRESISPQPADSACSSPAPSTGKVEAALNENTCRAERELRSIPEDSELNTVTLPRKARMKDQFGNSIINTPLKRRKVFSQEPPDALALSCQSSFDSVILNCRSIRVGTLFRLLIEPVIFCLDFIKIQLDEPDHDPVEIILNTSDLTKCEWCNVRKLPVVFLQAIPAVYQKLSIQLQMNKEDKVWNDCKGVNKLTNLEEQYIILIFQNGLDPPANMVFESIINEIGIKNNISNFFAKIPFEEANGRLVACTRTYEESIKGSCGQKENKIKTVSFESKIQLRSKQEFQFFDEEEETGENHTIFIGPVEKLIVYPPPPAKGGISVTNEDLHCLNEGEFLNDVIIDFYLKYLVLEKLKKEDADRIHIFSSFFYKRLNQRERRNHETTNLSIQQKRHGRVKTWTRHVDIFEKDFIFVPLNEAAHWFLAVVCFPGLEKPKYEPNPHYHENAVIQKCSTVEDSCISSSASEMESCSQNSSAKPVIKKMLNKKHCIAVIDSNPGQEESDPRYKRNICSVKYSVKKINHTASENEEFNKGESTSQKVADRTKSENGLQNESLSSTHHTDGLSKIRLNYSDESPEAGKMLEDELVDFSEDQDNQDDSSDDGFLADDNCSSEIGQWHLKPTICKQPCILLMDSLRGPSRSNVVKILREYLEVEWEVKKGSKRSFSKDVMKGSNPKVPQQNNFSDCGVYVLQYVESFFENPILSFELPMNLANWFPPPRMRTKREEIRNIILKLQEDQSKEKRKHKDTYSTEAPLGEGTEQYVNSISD

Caspase-3 = molecular target: T4, Caspase-3 (Homo sapiens, UniProt P42574); experiment: caspase-3 inhibitors as off-family protease, SAR follow-up, selectivity assay for SENP protease inhibitor project, biochemical, luminescence, set 2 (AID 588599); format: functional
T4 sequence (P42574 whole entry): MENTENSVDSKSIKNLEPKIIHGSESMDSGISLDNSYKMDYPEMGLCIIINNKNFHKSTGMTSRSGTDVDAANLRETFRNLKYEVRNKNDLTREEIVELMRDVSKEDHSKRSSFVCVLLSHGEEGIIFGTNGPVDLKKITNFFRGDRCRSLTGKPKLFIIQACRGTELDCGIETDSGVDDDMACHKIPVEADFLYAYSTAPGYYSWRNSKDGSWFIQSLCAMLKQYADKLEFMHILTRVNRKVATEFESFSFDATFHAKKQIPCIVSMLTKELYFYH

Candida albicans [4] = experiment: single-agent growth inhibition of C. albicans, dose response, counter-screen for antifungal drug resistance project, C. albicans CaCi-2, dry powder (AID 488802); format: functional, organism-based
NIH3T3 = experiment: cytotoxicity in NIH-3T3 fibroblasts, dose response, cytotoxicity control for antifungal drug resistance project, cell-based, Alamar Blue, fluconazole, dry powder (AID 488809); format: functional; settings: Mus musculus
Candida albicans [5] = experiment: growth inhibition of resistant C. albicans, dose response, CaCi-8, fluconazole, Alamar Blue, dry powder (AID 488807); format: functional, organism-based
Beta-galactosidase = Beta-galactosidase (Escherichia coli, UniProt Q8VNN2); experiment: beta-galactosidase enzyme inhibitors and activators, dose response, artefact control for CCR6 antagonist project, biochemical, E. coli enzyme, set 3 (AID 504712); format: functional
Chain of Beta-galactosidase (Q8VNN2 whole entry): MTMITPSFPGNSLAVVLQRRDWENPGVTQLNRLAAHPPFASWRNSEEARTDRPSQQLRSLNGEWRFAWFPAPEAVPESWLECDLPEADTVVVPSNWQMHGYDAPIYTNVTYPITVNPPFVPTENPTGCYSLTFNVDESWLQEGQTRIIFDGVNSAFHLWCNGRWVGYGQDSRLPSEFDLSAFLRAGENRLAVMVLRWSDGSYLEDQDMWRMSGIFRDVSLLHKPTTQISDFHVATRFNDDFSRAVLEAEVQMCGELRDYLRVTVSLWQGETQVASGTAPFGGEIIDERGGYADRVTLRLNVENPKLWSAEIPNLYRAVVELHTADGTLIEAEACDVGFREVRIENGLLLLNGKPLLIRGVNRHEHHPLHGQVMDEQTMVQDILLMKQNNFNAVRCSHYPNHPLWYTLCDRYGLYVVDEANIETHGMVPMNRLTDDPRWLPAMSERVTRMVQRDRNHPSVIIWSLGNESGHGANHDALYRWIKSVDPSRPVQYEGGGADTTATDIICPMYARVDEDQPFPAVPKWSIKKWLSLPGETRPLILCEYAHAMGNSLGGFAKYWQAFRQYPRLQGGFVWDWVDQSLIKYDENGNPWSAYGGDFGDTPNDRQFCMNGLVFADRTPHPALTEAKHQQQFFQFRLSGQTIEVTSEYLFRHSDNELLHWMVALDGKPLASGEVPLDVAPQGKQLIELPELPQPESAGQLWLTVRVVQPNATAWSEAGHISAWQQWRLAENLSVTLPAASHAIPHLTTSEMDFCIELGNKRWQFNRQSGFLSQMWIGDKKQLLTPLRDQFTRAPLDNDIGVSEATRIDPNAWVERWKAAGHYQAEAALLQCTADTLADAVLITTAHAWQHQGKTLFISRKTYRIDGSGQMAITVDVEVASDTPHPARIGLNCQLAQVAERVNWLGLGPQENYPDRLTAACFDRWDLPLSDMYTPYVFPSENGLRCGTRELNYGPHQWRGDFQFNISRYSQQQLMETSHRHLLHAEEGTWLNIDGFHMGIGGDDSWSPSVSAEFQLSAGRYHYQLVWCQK

[6] = molecular target: Neurotensin receptor type 1 (Homo sapiens, UniProt P30989); format: functional;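 note: Image-based confirmatory dose-response assay measuring agonist activity at NTR1; NTR1-expressing U2OS osteosarcoma cells imaged for beta-arrestin GFP spot formation; agonist potency where compounds increase beta-arrestin recruitment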
Chain of Neurotensin receptor type 1 (P30989 whole entry): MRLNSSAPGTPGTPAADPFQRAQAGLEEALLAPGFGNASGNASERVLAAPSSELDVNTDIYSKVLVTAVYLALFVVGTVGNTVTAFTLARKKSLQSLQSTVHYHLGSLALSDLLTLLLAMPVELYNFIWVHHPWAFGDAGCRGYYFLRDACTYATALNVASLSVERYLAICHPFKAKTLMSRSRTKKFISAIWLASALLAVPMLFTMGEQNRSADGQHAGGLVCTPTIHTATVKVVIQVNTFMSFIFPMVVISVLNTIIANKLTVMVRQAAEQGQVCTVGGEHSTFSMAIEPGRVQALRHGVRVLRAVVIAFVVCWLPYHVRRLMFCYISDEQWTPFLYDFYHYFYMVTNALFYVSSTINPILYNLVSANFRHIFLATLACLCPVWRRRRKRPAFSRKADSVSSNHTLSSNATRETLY

[7] = HepG2 cell cytotoxicity, dose response, cytotoxicity control for Shn3 inhibitor project, CellTiter-Glo, cherry-picked (AID 624134); format: functional, cell-based
[8] = Shn3 3'UTR reporter inhibitors, dose response, cell-based, Clone20 osteoblasts, firefly luciferase, cherry-picked (AID 624132); format: functional;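 note: firefly luciferase luminescence from reporter carrying the Shn3 3'UTR in osteoblasts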
HEK293 = experiment: inhibitors of LMP1-driven NF-kB reporter, dose response, cell-based, HEK293, luciferase, cherry-pick (AID 588343); format: functional; settings: Homo sapiens
[9] = control 3'UTR Renilla luciferase suppression, dose response, counter-screen for Shn3 inhibitor project, cell-based, Clone20-Shn3RL, cherry-picked (AID 624133); format: functional
Beta Lactamase = Beta Lactamase (Pseudomonas aeruginosa, UniProt Q932Y6); experiment: beta-lactamase reporter inhibitor potency, dose response, artefact control for NOD2-RIPK2 interaction inhibitor project, BLA reporter cells, FRET fluorescence (AID 651552); format: functional, cell-based
Chain of Beta Lactamase (Q932Y6 whole entry): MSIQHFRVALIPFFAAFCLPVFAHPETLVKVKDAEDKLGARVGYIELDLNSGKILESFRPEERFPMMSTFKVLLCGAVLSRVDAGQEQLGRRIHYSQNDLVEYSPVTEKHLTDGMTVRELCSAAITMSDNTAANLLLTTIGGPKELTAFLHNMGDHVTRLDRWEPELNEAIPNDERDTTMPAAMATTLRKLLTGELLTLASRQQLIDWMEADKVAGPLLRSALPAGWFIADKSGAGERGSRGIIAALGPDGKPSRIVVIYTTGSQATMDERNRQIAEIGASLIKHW

[10] = molecular target: Latent membrane protein 1 (Human herpesvirus 4 (strain B95-8), UniProt P03230); experiment: TES1-eGFP NF-kB reporter inhibition versus Tet-On dsRED, dose response, selectivity assay for LMP1 NF-kB inhibitor project, imaging, HEK293T, dual-color eGFP/dsRED, cherry-picks (AID 588398); format: functional, cell-based
Chain of Latent membrane protein 1 (P03230 whole entry, the tested form may be a part): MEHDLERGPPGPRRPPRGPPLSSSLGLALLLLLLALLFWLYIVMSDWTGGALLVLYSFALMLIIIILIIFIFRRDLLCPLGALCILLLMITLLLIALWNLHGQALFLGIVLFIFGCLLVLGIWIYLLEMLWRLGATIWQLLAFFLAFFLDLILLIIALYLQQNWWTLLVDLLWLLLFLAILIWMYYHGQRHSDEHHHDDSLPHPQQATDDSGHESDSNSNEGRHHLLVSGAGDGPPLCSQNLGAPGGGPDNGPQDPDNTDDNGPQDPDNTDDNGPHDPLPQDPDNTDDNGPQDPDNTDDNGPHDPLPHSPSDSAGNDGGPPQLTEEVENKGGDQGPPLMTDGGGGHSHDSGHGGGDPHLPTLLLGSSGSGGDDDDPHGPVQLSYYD

[11] = Fluorescence-based cell-based high throughput dose response assay for inhibitors of the interaction of nucleotide-binding oligomerization domain containing 2 (NOD2) and the receptor-interacting serine-threonine kinase 2 (RIPK2).; format: functional; settings: Homo sapiens
[12] = molecular target: Induced myeloid leukemia cell differentiation protein Mcl-1 (Homo sapiens, UniProt Q07820); format: functional
Chain of Induced myeloid leukemia cell differentiation protein Mcl-1 (Q07820 whole entry): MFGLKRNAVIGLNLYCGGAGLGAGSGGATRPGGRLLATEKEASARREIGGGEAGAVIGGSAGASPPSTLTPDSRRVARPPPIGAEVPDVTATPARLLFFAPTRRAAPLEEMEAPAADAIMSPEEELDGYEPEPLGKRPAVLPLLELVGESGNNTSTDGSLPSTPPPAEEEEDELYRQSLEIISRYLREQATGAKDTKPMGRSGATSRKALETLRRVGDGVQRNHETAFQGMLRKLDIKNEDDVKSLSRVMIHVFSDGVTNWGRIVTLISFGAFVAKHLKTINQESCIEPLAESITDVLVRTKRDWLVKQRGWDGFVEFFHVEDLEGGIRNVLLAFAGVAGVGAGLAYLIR

[13] = Luminescence Cell-Based Dose Confirmation HTS to Identify Inhibitors of Platelet Dense Granule Release. [Related pubchem assays: 1663 (Primary HTS), 1678 (Summary of Project)]; format: functional
[14] = molecular target: Luciferin 4-monooxygenase (Photinus pyralis, UniProt P08659); experiment: firefly luciferase enzyme inhibitors, dose response, biochemical, luminescence (AID 1891)
Chain of Luciferin 4-monooxygenase (P08659 whole entry): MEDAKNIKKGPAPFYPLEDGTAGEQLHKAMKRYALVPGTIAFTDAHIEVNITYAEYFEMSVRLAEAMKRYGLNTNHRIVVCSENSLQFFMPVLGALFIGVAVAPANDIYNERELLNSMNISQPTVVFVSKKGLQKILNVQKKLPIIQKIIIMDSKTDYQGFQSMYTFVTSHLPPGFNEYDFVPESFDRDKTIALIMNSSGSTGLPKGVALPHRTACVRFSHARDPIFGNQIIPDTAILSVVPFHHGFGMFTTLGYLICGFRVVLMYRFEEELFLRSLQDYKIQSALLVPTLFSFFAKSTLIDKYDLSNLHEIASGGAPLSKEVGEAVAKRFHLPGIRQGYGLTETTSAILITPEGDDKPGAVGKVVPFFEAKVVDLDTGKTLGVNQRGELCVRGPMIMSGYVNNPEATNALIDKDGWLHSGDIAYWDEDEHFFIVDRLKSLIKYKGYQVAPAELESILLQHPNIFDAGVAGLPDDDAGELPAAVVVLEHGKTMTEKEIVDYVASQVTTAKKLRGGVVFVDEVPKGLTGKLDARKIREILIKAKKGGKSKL

[15] = Vero cell cytotoxicity, dose response, cytotoxicity control for M. tuberculosis inhibitor project, purified and synthesized compounds, set 6 (AID 588445); format: functional; settings: Mycobacterium tuberculosis
[16] = THP-1 cell cytotoxicity, cytotoxicity control, set 5 (AID 588443); format: functional
[17] = molecular target: Protein disulfide-isomerase (Homo sapiens, UniProt P07237); experiment: PDI inhibitors, insulin aggregation turbidity, dose response, biochemical, absorbance, cherry-picked samples (AID 602350); format: functional
Chain of Protein disulfide-isomerase (P07237 whole entry): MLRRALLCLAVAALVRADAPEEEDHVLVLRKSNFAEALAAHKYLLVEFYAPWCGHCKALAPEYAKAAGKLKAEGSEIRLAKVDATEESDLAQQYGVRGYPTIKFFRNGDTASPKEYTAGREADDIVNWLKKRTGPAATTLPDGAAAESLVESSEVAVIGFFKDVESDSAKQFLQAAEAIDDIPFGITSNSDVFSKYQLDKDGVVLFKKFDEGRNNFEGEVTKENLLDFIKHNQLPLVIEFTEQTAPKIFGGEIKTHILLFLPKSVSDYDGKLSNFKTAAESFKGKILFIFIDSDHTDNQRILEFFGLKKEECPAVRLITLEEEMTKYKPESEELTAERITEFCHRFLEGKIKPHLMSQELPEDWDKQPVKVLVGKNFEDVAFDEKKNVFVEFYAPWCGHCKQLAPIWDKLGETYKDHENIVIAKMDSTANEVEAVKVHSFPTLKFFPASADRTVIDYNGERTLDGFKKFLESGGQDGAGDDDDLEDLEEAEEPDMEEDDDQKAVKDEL

[18] = molecular target: Scavenger receptor class B member 1 (Mus musculus, UniProt Q61009); experiment: inhibitors of SR-BI-mediated HDL uptake, dose response, cell-based, ldlA[mSR-BI] CHO, DiI fluorescence, dry powder, set 10 (AID 624029); format: functional
Chain of Scavenger receptor class B member 1 (Q61009 whole entry): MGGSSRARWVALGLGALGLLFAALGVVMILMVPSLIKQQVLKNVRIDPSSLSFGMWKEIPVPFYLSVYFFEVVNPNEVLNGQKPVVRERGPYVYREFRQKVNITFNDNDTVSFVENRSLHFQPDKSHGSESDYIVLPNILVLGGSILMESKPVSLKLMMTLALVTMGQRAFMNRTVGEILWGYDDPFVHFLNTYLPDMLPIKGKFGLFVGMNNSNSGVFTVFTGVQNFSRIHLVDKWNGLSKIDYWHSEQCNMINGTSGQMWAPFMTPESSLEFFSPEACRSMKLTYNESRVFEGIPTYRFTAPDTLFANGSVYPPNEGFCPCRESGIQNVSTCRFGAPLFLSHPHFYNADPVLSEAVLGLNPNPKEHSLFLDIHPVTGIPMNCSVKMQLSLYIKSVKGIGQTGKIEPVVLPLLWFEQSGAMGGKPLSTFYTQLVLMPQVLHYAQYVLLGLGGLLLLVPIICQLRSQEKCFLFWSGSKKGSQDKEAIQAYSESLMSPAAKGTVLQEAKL

In the case of `NS(=O)(=O)c1ccc(CCNC(=O)C(=O)c2c[nH]c3ccccc23)cc1`, the IC50 [1] is reported as > 99 µM (inactive), the IC50 [2] is reported as > 99 µM (inactive) and the IC50 [3] is reported as > 99 µM (inactive). The IC50 (Caspase-3) was > 99 µM (inactive).

With `COc1ccc(NC(=O)Cn2c3ccccc3c3nc4n(c(=O)c32)CCS4)cc1` the AC50 (Candida albicans [4]) was 50.1 µM (active), the AC50 (NIH3T3) was 34.2 µM (active) and the AC50 (Candida albicans [5]) was 12.7 µM (active).

In the case of `CCOc1ccc(/C=C/[N+](=O)[O-])c2ccccc12`, the IC50 (Beta-galactosidase) is reported as > 66.6 µM (inactive), the EC50 [6] is reported as 9.56 µM (active) and the AC50 [7] is reported as 3.78 µM (active). For the same compound, the AC50 [8] was 4.27 µM (active), the AC50 (HEK293) was 4.67 µM (active) and the AC50 [9] was 13.9 µM (active). For the same compound, the IC50 (Beta Lactamase) was 43.1 µM (inactive), the AC50 [10] was 1.63 µM (active) and the IC50 [11] was 1.76 µM (active). The IC50 [12] was 2.18 µM (active).

In the case of `O=C(NCCc1ccc(Cl)cc1)c1ccc(CNc2c(N3CCOCC3)c(=O)c2=O)cc1`, the EC50 [13] is reported as > 112 µM (not active), the EC50 [14] is reported as > 112 µM (not active) and the CC50 [15] is reported as > 100 µM (active). The CC50 [16] was > 100 µM (active).

In the case of `C[C@@H]1CN([C@H](C)CO)C(=O)c2cc(NC(=O)Cc3cn(C)c4ccccc34)ccc2O[C@H]1CN(C)S(=O)(=O)c1ccc(F)cc1`, the AC50 [17] is reported as 1.26 µM (active) and 16.4 µM (active) and the AC50 [18] is reported as 0.00202 µM (active).
